Measured values as given in patent publication US8686044B2, “Amide derivative, pest control agent containing the amide derivative, and use of the amide derivative” (Mitsui Chemicals Agro, Inc., priority 2008, dated 2014).

Columns and labels:
Assay type in all cases: in vivo
Spodoptera litura = assay: Pesticidal test against Spodoptera litura (cabbage leaf dip); conditions: foliar, 144 h, concentration 1 ppm, 2-stage larvae, examined after 6 days, 25° C., read-out: pesticidal rate
Description: (§1) Pesticidal Test against Spodoptera litura A piece of a cabbage leaf was immersed for 30 seconds in a chemical solution in which a test compound had been prepared at a predetermined concentration, and air-dried, and then put into a 7 cm polyethylene cup having a filter paper laid on the bottom thereof, and 2-stage larvae of Spodoptera litura were released. They were left to stand in a thermostatic chamber at 25° C., and the numbers of the living pests and the dead pests were examined after 6 days. The test was carried out with five larvae per group in two replicates. Further, the following compound (A) disclosed in the pamphlet of International Publication WO 2005/073165 was used as a comparative compound.

Plutella xylostella = assay: Pesticidal test against Plutella xylostella (cabbage leaf dip); conditions: foliar, 144 h, concentration 1 ppm, 2-stage larvae, examined after 6 days, 25° C., read-out: pesticidal rate
Description: as §1, with “Plutella xylostella” for “Spodoptera litura”, “above” for “following”, “(A)” for “(A) disclosed in the pamphlet of International Publication WO 2005/073165”

Laodelphax striatellus = assay: Pesticidal test against Laodelphax striatellus (rice seedling spray); conditions: 144 h, concentration 100 ppm, 3-stage larvae, examined after 6 days, 25° C., read-out: pesticidal rate
Description: Pesticidal Test against Laodelphax striatellus
2.5 ml of an acetone solution in which a test compound had been prepared at a predetermined concentration was sprayed on rice seedlings, air-dried, and then put into a glass tube having a diameter of 3 cm and a height of 13 cm, having water therein, and 3-stage larvae of Laodelphax striatellus were released and the tube was capped. They were left to stand in a thermostatic chamber at 25° C., and the numbers of the living pests and the dead pests were examined after 6 days. The test was carried out with ten larvae per group in two replicates.

CN(C(=O)c1cccc(NC(=O)c2ccc(C#N)cc2)c1)c1c(Br)cc(C(F)(C(F)(F)F)C(F)(F)F)cc1C(F)(F)F [8-289, N-(2-bromo-4-(perfluoropropan-2-yl)-6-(trifluoromethyl)phenyl)-3-(4-cyanobenzamide)-N-methylbenzamide]
≥ 70%: pest or weed control at 1 ppm (Spodoptera litura) | pest or weed control at 1 ppm (Plutella xylostella) | pest or weed control at 100 ppm (Laodelphax striatellus)

O=C(Nc1c(Br)cc(C(F)(C(F)(F)F)C(F)(F)F)cc1C(F)(F)F)c1cccc(NC(=O)c2cccnc2Cl)c1 [6-304]
≥ 70%: pest or weed control at 1 ppm (Spodoptera litura) | pest or weed control at 1 ppm (Plutella xylostella) | pest or weed control at 100 ppm (Laodelphax striatellus)

CN(C(=O)c1ccccc1F)c1cccc(C(=O)Nc2c(I)cc(C(F)(C(F)(F)F)C(F)(F)C(F)(F)F)cc2I)c1F (stereo not drawn) [7-1339]
≥ 70%: pest or weed control at 1 ppm (Spodoptera litura) | pest or weed control at 1 ppm (Plutella xylostella) | pest or weed control at 100 ppm (Laodelphax striatellus)

CN(C(=O)c1cccc(F)c1)c1cccc(C(=O)Nc2c(I)cc(C(F)(C(F)(F)F)C(F)(F)C(F)(F)F)cc2I)c1 (stereo not drawn) [7-5904]
≥ 70%: pest or weed control at 1 ppm (Spodoptera litura) | pest or weed control at 1 ppm (Plutella xylostella) | pest or weed control at 100 ppm (Laodelphax striatellus)

CN(C(=O)c1ccc(C#N)cc1)c1cc(C(=O)Nc2c(Cl)cc(C(F)(C(F)(F)F)C(F)(F)F)cc2C(F)(F)F)ccc1C#N [2-491, N-(2-chloro-4-(perfluoropropan-2-yl)-6-(trifluoromethyl)phenyl)-4-cyano-3-(4-cyano-N-methylbenzamide)benzamide]
≥ 70%: pest or weed control at 1 ppm (Spodoptera litura) | pest or weed control at 1 ppm (Plutella xylostella) | pest or weed control at 100 ppm (Laodelphax striatellus)

CN(C(=O)c1cccnc1Cl)c1cccc(C(=O)Nc2c(Br)cc(C(F)(C(F)(F)F)C(F)(F)F)cc2I)c1F [7-5903]
≥ 70%: pest or weed control at 1 ppm (Spodoptera litura) | pest or weed control at 1 ppm (Plutella xylostella) | pest or weed control at 100 ppm (Laodelphax striatellus)

O=C(Nc1cccc(C(=O)Nc2c(I)cc(C(F)(C(F)(F)F)C(F)(F)C(F)(F)F)cc2I)c1)c1ccc(F)cc1 (stereo not drawn) [6-5904]
≥ 70%: pest or weed control at 1 ppm (Spodoptera litura) | pest or weed control at 1 ppm (Plutella xylostella) | pest or weed control at 100 ppm (Laodelphax striatellus)

CN(C(=O)c1ccc(F)cc1)c1cccc(C(=O)Nc2c(Br)cc(C(F)(C(F)(F)F)C(F)(F)C(F)(F)F)cc2Br)c1 (stereo not drawn) [7-5907]
≥ 70%: pest or weed control at 1 ppm (Spodoptera litura) | pest or weed control at 1 ppm (Plutella xylostella) | pest or weed control at 100 ppm (Laodelphax striatellus)

N#Cc1cccc(C(=O)Nc2cccc(C(=O)Nc3c(I)cc(C(F)(C(F)(F)F)C(F)(F)F)cc3C(F)(F)F)c2)c1 [6-444]
≥ 70%: pest or weed control at 1 ppm (Spodoptera litura) | pest or weed control at 1 ppm (Plutella xylostella) | pest or weed control at 100 ppm (Laodelphax striatellus)

CN(C(=O)c1cccc(F)c1)c1cccc(C(=O)Nc2c(I)cc(C(F)(C(F)(F)F)C(F)(F)F)cc2C(F)(F)F)c1 [7-426]
≥ 70%: pest or weed control at 1 ppm (Spodoptera litura) | pest or weed control at 1 ppm (Plutella xylostella) | pest or weed control at 100 ppm (Laodelphax striatellus)

CN(C(=O)c1cccc(C#N)c1)c1cccc(C(=O)Nc2c(Br)cc(C(F)(C(F)(F)F)C(F)(F)C(F)(F)F)cc2C(F)(F)F)c1F (stereo not drawn) [7-1672]
≥ 70%: pest or weed control at 1 ppm (Spodoptera litura) | pest or weed control at 1 ppm (Plutella xylostella) | pest or weed control at 100 ppm (Laodelphax striatellus)

O=C(Nc1c(Br)cc(C(F)(C(F)(F)F)C(F)(F)C(F)(F)F)cc1Br)c1cccc(NC(=O)c2cccnc2Cl)c1 (stereo not drawn) [6-57]
≥ 70%: pest or weed control at 1 ppm (Spodoptera litura) | pest or weed control at 1 ppm (Plutella xylostella) | pest or weed control at 100 ppm (Laodelphax striatellus)

CN(C(=O)c1cccc(NC(=O)c2cccnc2Cl)c1)c1c(Br)cc(C(F)(C(F)(F)F)C(F)(F)F)cc1C(F)(F)F [8-304]
≥ 70%: pest or weed control at 1 ppm (Spodoptera litura) | pest or weed control at 1 ppm (Plutella xylostella) | pest or weed control at 100 ppm (Laodelphax striatellus)

CN(C(=O)c1cccnc1Cl)c1cccc(C(=O)Nc2c(I)cc(C(F)(C(F)(F)F)C(F)(F)F)cc2C(F)(F)F)c1 [7-460]
≥ 70%: pest or weed control at 1 ppm (Spodoptera litura) | pest or weed control at 1 ppm (Plutella xylostella) | pest or weed control at 100 ppm (Laodelphax striatellus)

CN(C(=O)c1cccc(F)c1)c1cccc(C(=O)Nc2c(Br)cc(C(F)(C(F)(F)F)C(F)(F)C(F)(F)F)cc2Br)c1F (stereo not drawn) [7-1184]
≥ 70%: pest or weed control at 1 ppm (Spodoptera litura) | pest or weed control at 1 ppm (Plutella xylostella) | pest or weed control at 100 ppm (Laodelphax striatellus)

CN(C(=O)c1ccc(C#N)cc1)c1cccc(C(=O)Nc2c(Br)cc(C(F)(C(F)(F)F)C(F)(F)C(F)(F)F)cc2C(F)(F)F)c1F (stereo not drawn) [7-1673]
≥ 70%: pest or weed control at 1 ppm (Spodoptera litura) | pest or weed control at 1 ppm (Plutella xylostella) | pest or weed control at 100 ppm (Laodelphax striatellus)

O=C(Nc1cccc(C(=O)Nc2c(Br)cc(C(F)(C(F)(F)F)C(F)(F)C(F)(F)F)cc2Br)c1F)c1ccccc1F (stereo not drawn) [6-1183]
≥ 70%: pest or weed control at 1 ppm (Spodoptera litura) | pest or weed control at 1 ppm (Plutella xylostella) | pest or weed control at 100 ppm (Laodelphax striatellus)

N#Cc1ccc(C(=O)Nc2cccc(C(=O)Nc3c(I)cc(C(F)(C(F)(F)F)C(F)(F)F)cc3C(F)(F)F)c2)cc1 [6-445]
≥ 70%: pest or weed control at 1 ppm (Spodoptera litura) | pest or weed control at 1 ppm (Plutella xylostella) | pest or weed control at 100 ppm (Laodelphax striatellus)

CN(C(=O)c1ccc([N+](=O)[O-])cc1)c1cccc(C(=O)Nc2c(Br)cc(C(F)(C(F)(F)F)C(F)(F)F)cc2C(F)(F)F)c1 [7-286]
≥ 70%: pest or weed control at 1 ppm (Spodoptera litura) | pest or weed control at 1 ppm (Plutella xylostella) | pest or weed control at 100 ppm (Laodelphax striatellus)

CN(C(=O)c1ccccc1)c1cccc(C(=O)N(C)c2c(Br)cc(C(F)(C(F)(F)F)C(F)(F)F)cc2C(F)(F)F)c1 [9-270]
≥ 70%: pest or weed control at 1 ppm (Spodoptera litura) | pest or weed control at 1 ppm (Plutella xylostella) | pest or weed control at 100 ppm (Laodelphax striatellus)

CN(C(=O)c1cccnc1Cl)c1cccc(C(=O)Nc2c(I)cc(C(F)(C(F)(F)F)C(F)(F)C(F)(F)F)cc2C(F)(F)F)c1F (stereo not drawn) [7-1844]
≥ 70%: pest or weed control at 1 ppm (Spodoptera litura) | pest or weed control at 1 ppm (Plutella xylostella) | pest or weed control at 100 ppm (Laodelphax striatellus)

CN(C(=O)c1cccnc1Cl)c1cccc(C(=O)Nc2c(Br)cc(C(F)(C(F)(F)F)C(F)(F)C(F)(F)F)cc2Br)c1F (stereo not drawn) [7-1218]
≥ 70%: pest or weed control at 1 ppm (Spodoptera litura) | pest or weed control at 1 ppm (Plutella xylostella) | pest or weed control at 100 ppm (Laodelphax striatellus)

CN(C(=O)c1ccc(F)cc1)c1cccc(C(=O)Nc2c(I)cc(C(F)(C(F)(F)F)C(F)(F)C(F)(F)F)cc2I)c1F (stereo not drawn) [7-1341]
≥ 70%: pest or weed control at 1 ppm (Spodoptera litura) | pest or weed control at 1 ppm (Plutella xylostella) | pest or weed control at 100 ppm (Laodelphax striatellus)

O=C(Nc1cccc(C(=O)Nc2c(Br)cc(C(F)(C(F)(F)F)C(F)(F)F)cc2Br)c1F)c1cccnc1Cl [6-1140, 2-chloro-N-(3-(2,6-dibromo-4-(perfluoropropan-2-yl)phenylcarbamoyl)-2-fluorophenyl)nicotinamide]
≥ 70%: pest or weed control at 1 ppm (Spodoptera litura) | pest or weed control at 1 ppm (Plutella xylostella) | pest or weed control at 100 ppm (Laodelphax striatellus)

N#Cc1ccc(C(=O)Nc2cccc(C(=O)Nc3c(Br)cc(C(F)(C(F)(F)F)C(F)(F)C(F)(F)F)cc3Br)c2F)cc1 (stereo not drawn) [6-1203]
≥ 70%: pest or weed control at 1 ppm (Spodoptera litura) | pest or weed control at 1 ppm (Plutella xylostella) | pest or weed control at 100 ppm (Laodelphax striatellus)

N#Cc1ccc(C(=O)Nc2c(Br)cc(C(F)(C(F)(F)F)C(F)(F)F)cc2C(F)(F)F)cc1NC(=O)c1ccccc1 [1-627, 3-benzamide-N-(2-bromo-4-(perfluoropropan-2-yl)-6-(trifluoromethyl)phenyl)-4-cyanobenzamide]
≥ 70%: pest or weed control at 1 ppm (Spodoptera litura) | pest or weed control at 1 ppm (Plutella xylostella) | pest or weed control at 100 ppm (Laodelphax striatellus)

CN(C(=O)c1cccnc1Cl)c1cccc(C(=O)Nc2c(Br)cc(C(F)(C(F)(F)F)C(F)(F)F)cc2C(F)(F)F)c1F [7-1610]
≥ 70%: pest or weed control at 1 ppm (Spodoptera litura) | pest or weed control at 1 ppm (Plutella xylostella) | pest or weed control at 100 ppm (Laodelphax striatellus)
